This note sets out measurements from patent US11260083B2, “Compositions and methods for treating and preventing graft versus host disease” (The Regents of the University of Michigan, priority 2016, dated 2022).

For data set [1] the following is noted: mouse, in vivo.
Experimental: Animals were intragastrically gavaged with a bolus (2 g/kg) of either labeled ^13C2-Butyrate or non-labeled ^12C-Butyrate. The small and large intestines were then harvested 6 hours later and prepared for analysis as above. […] The ratio of the labeled to unlabeled peak areas were adjusted to incorporate natural distribution of ^13C label and expressed as percentage of ^13C incorporation into the butyrate pool in the luminal contents (Lumen) and intestinal tissue.
It was next determined whether there was a difference in the uptake and metabolism of the exogenously administered butyrate between the syngeneic and allogeneic recipients. To this end, metabolic flux analysis (MFA) assessing label incorporation of heavy 13C labeled butyrate into luminal and intestinal tissue butyrate pools was performed by utilizing GC/MS as above. Recipients of syngeneic and allogeneic transplant were treated 7 days after BMT with a bolus of either^13C-butyrate or regular ^12C-butyrate, which served as the control. The IECs and luminal contents were harvested 6 hours later and analyzed for incorporation of ^13C.
The next data set concerns SLC5A8. Kind of data set: Primary IECs cultured with proinflammatory mediators. It counts as cell-based, mouse. The following applies: primary IECs exposed to IFN-γ and/or TNF. On the procedure:
It was next explored whether the diminished concentration of butyrate observed in the intestinal tissue was from impaired uptake of butyrate following allo-BMT. To this end, the expression of the known butyrate monocarboxylate transporter (SLC5A8) and the receptor of butyrate (GPR43) was analyzed in IECs following allo-BMT (Ganapathy, V., Thangaraju, M., Prasad, P. D., Martin, P. M. & Singh, N. Transporters and receptors for short-chain fatty acids as the molecular link between colonic bacteria and the host. Curr Opin Pharmacol 13, 869-874 (2013); Furusawa, Y. et al. Commensal microbe-derived butyrate induces the differentiation of colonic regulatory T cells. Nature (2013)). […] Primary IECs were cultured with proinflammatory mediators (IFN-γ and/or TNF) and expression of the butyrate transporter SLC5A8 was analyzed.

Where [2] appears, read: IECs from large intestine, allogeneic vs syngeneic recipients.

Consider `CC[13CH2][13C](=O)[O-].[Na+]` [^13C-butyrate, Sodium butyrate-1,2-^13C2], for which the “13C heavy butyrate in the intestinal tissue” value in data set [1] is recorded as “significantly decreased”. Moreover, under setting [2], the “heavy carbon in malate” value is “significant difference” and the incorporation into succinate result is given as “trend towards greater incorporation”. Besides, the “13C incorporation in malate” value (IECs from small and large intestines combined, allo-BMT vs syngeneic) was “overall increased level”.

B1: IFN-γ: proinflammatory mediator (protein, UniProt P01579 24-161, looked up)
Interferon gamma: QDPYVKEAENLKKYFNAGHSDVADNGTLFLGILKNWKEESDRKIMQSQIVSFYFKLFKNFKDDQSIQKSVETIKEDMNVKFFNSNKKKRDDFEKLTNYSVTDLNVQRKAIHELIQVMAELSPAAKTGKRKRSQMLFRG
As for B1, in the data set with SLC5A8, the “expression of Slc5a8” value is recorded as “significantly decreased”.
